Results from ChEMBL document CHEMBL1136419, “Homologues and isomers of noladin ether, a putative novel endocannabinoid: interaction with rat cannabinoid CB(1) receptors” (Bioorg Med Chem Lett, 2003).

What was measured:
Type in all cases: cell membranes
Cannabinoid receptor 1 [1] = biological target: T1, Cannabinoid receptor 1 (Rattus norvegicus, UniProt P20272); assay: Binding affinity towards cannabinoid CB1 receptor in rat brain membrane by displacement of [3H]SR-141,716A
[2] = biological target: Cannabinoid receptor 1 (Rattus norvegicus) (UniProt P20272); assay: Binding affinity towards CB1 receptor in rat brain membrane by displacement of [3H]SR-141,716A relative to HU-210
Sequence of Cannabinoid receptor 1 (Rattus norvegicus) (P20272 whole entry): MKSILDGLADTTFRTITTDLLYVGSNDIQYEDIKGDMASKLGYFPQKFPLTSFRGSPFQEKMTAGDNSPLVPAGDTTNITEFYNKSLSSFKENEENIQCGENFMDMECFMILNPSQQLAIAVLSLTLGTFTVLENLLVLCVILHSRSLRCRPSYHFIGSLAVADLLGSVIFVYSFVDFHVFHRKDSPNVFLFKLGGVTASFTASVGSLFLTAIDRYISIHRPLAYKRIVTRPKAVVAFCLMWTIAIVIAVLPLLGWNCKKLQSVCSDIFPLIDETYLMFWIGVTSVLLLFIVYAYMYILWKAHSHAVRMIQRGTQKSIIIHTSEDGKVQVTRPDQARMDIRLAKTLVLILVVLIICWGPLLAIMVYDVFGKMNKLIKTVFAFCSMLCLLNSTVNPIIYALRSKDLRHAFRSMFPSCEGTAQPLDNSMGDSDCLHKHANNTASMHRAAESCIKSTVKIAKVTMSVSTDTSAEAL

Cannabinoid receptor 1 [3] = biological target: T1, Cannabinoid receptor 1; assay: Binding affinity towards cannabinoid CB1 receptor in rat brain membrane by displacement of [3H]SR-141,716A at 50 uM

T1 sequence (P20272 whole entry): as above

Structure (SMILES)	Ki (Cannabinoid receptor 1 [1]) [µM]	Krel [2]	Ki (Cannabinoid receptor 1 [3]) [µM]
CCCCCCCCCCCCCCCCOCC(O)CO (centres undefined)	> 50	> 12500	
CCCCC/C=C\C/C=C\C/C=C\CCCCCOC(CO)CO	13.9	3480	
CCCCCC[C@@H]1C[C@@H]1C#CCCCCCCCCOC(CO)CO	> 50	> 125000	
CC(C)=CCC/C(C)=C/COCC(O)CO (centres undefined)	> 50	> 12500	
CCCCCC/C=C/C#CCCCCCCCCOC(CO)CO		> 125000	> 50
CCCCC/C=C\C/C=C\C/C=C\C/C=C\CCCCOCC(O)CO (stereo in doubt; 5a) [listing 1 of 2 here]		1250	
CCCCC/C=C\C/C=C\CCCCCCCCOC(CO)CO	22.5	5620	
CCCCCCCC/C=C\CCCCCCCCCCCCOC(CO)CO		> 12500	> 50
CCCCCCCC[C@@H]1C[C@@H]1CCCCCCCCCCCCOC(CO)CO (single isomer, unassigned)	> 50	> 125000	
CCCCCCCC/C=C\CCCCCCCCOC(CO)CO	25.6	6400	
CCCCCCCCCCCCCCCCOC(CO)CO	> 50	> 12500	
CCCCCCCC[C@@H]1C[C@@H]1CCCCCCCCOC(CO)CO	> 50	> 125000	
CCCCC/C=C\C/C=C\C/C=C\C/C=C\CCCCOCC(O)CO (stereo in doubt; 5b)		625	
CC(C)=CCC/C(C)=C/CC/C(C)=C/COC(CO)CO	> 50	> 12500	
CCCCC/C=C\C/C=C\C/C=C\C/C=C\CCCCOCC(O)CO (stereo in doubt; 5a) [listing 2 of 2 here]	5		
CC(C)=CCC/C(C)=C/COC(CO)CO	> 50	> 12500	
